Laboratory results: PubChem BioAssay (NCI)
Several values for one entry are separate records, joined by “and”; a condition that tells them apart may be missing. Equal entries are not always repeated.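 Interpolation was linear, between the two tested concentrations surrounding the appropriate level; five concentrations were tested over 48 hours in 96-well plates. TGI: total growth inhibition.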

Key:
Experiment in all cases: growth of human tumour cells (NCI), 48 h
[1] = test system: HL-60(TB) leukemia
[2] = test system: EKVX NSCLC
[3] = test system: MALME-3M melanoma
[4] = test system: K-562 leukemia
[5] = test system: HOP-92 NSCLC
[6] = test system: UACC-257 melanoma
[7] = test system: HOP-62 NSCLC
[8] = test system: MOLT-4 leukemia
[9] = test system: ACHN renal
[10] = test system: LOX IMVI melanoma
[11] = test system: NCI-H460 lung
[12] = test system: T-47D breast
[13] = test system: SK-MEL-28 melanoma
[14] = test system: TK-10 renal
[15] = test system: MCF7 breast
[16] = test system: SW-620 colon
[17] = test system: A549 NSCLC
[18] = test system: HCT-15 colon
[19] = test system: NCI/ADR-RES ovarian
[20] = test system: SF-268 CNS

SMILES | TGI [1] [µM] | TGI [2] | TGI [3] | TGI [4] | TGI [5] [µM] | TGI [6] | TGI [7] | TGI [8] | TGI [9] | TGI [10] | TGI [11] | TGI [12] | TGI [13] | TGI [14] | TGI [15] | TGI [16] | TGI [17] | TGI [18] | TGI [19] | TGI [20]
COc1nc2nccnc2c(=O)n1C | > 10 | > 10 µM | > 10 µM | > 10 µM | > 10 | > 10 µM | > 10 µM | > 10 µM | > 10 µM | > 10 µM | > 10 µM | > 10 µM | > 10 µM | > 10 µM | > 10 µM | > 10 µM | > 10 µM | > 10 µM | > 10 µM | > 10 µM
CC(=O)NC1c2ccccc2C(C)(C)C12CCC1(CC2)OCCO1 (centres undefined) | > 100 | > 100 µM | > 100 µM | > 100 µM |  | > 100 µM | > 100 µM | > 100 µM | > 100 µM | > 100 µM | > 10 µM | > 100 µM | > 100 µM | > 100 µM | > 100 µM | > 100 µM | > 100 µM | > 100 µM | > 100 µM | > 100 µM
CN(C)CCOC1(Cc2ccc(F)cc2)CCC(C(C)(C)C)CC1 (centres undefined) | 13.1 | 27.4 µM and 32.5 µM | 7.95 µM and 10.6 µM | 5.05 µM and 7.04 µM | 25.3 | 13.4 µM and 12.1 µM | 19.3 µM and 18.8 µM | 8.88 µM and 12.3 µM | 23.5 µM and 25.7 µM | 7.05 µM and 10.5 µM | 11.1 µM and 7.09 µM | 17.1 µM and 13.7 µM | 14.7 µM and 12 µM | 20.5 µM and 24.7 µM | 14.3 µM and 18.3 µM | 16.6 µM and 20.7 µM | 22 µM and 25.3 µM | 21.9 µM and 19.7 µM | 24.2 µM and 27.7 µM | 27.2 µM and 28 µM
C=C1C(=O)C=C[C@]2(C)CC[C@H]3C(=C)C(=O)O[C@@H]3[C@@H]12 | 14.4 | 8.7 µM | 5.18 µM | 4.24 µM | 7.62 | 10.5 µM | 6.36 µM | 3.52 µM | 9.59 µM | 3.94 µM | 33.1 µM | 20.7 µM | 4.04 µM | 1.98 µM | 13.3 µM | 5.34 µM | 29.8 µM | 13.8 µM | 7.02 µM | 11.7 µM
CC(C)(C)OC(=O)NCCCNC1(c2cc3ccccc3s2)CCCCC1 | 28 | 28.6 µM | 30.9 µM | 26.3 µM | 22.6 | 30.8 µM | 28.5 µM | 28.4 µM | 33.6 µM | 35.2 µM | 30.5 µM | 39.7 µM | 29.9 µM | 32 µM | 30.6 µM | 40.9 µM | 27.2 µM | 29.5 µM | 30.2 µM | 33.8 µM
Cc1cc(NCc2ccccc2)c2ccccc2[n+]1CCCCCCCCCC[n+]1c(C)cc(NCc2ccccc2)c2ccccc21 | 1.19 | 13.4 µM | > 100 µM |  | 2.25 | 1.31 µM |  |  | 2.92 µM |  |  | 1.41 µM | 2.16 µM | 3.17 µM | 1.91 µM | 4.31 µM | 4.39 µM | 5.88 µM | 21.9 µM | 2.45 µM
